Experimental data published in patent US8076338B2, “Kinase modulators and methods of use” (Exelixis, Inc., priority 2004, dated 2011).
Like-named read-outs stand apart in the source and are kept apart here.

Key:
AktK = AktK (Homo sapiens, UniProt P31749); test: Luciferase-coupled chemiluminescence kinase assay (ATP consumption); type: biochemical; conditions: read-out: AKT-1 IC50
Method in brief: (§1)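 Activity is read as ATP depletion: luciferase-luciferin reagent added after a 3 h ambient-temperature kinase reaction, with total ATP use limited to 25-60%. Before ATP addition, 2.5-5 nM kinase and compound were preincubated 30 min in Tris pH 7.5/MgCl2/TX-100/DTT buffer; […].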

p70S6K = p70S6K (Homo sapiens, UniProt P23443); test: as above; type: biochemical
Sequence of p70S6K (P23443 whole entry): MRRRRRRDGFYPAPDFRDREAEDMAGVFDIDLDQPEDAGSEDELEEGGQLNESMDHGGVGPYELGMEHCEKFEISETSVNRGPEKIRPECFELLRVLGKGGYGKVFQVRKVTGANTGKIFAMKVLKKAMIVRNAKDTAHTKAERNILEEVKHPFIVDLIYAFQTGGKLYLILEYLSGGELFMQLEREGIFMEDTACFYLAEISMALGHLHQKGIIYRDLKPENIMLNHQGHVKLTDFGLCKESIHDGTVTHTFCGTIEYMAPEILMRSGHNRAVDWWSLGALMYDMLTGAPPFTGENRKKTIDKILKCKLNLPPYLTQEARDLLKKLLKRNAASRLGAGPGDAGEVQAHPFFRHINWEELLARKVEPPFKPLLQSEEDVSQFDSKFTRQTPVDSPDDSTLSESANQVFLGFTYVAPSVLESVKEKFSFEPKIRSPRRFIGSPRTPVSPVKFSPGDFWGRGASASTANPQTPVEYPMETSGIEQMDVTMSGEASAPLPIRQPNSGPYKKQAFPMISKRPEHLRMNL
Method in brief: as §1

Sequence of AktK (P31749 whole entry): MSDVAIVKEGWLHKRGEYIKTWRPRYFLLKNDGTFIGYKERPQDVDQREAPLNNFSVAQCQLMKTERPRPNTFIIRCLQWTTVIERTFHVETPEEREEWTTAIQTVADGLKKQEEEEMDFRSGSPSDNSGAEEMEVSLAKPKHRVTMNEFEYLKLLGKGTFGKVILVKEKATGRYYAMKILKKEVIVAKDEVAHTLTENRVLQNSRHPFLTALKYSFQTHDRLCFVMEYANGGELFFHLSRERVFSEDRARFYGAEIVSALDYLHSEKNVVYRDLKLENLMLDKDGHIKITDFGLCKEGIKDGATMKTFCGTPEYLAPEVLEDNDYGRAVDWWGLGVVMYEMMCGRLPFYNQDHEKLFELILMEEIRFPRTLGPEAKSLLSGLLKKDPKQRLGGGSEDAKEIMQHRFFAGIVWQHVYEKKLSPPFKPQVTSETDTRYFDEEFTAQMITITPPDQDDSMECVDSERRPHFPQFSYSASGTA

| Molecule | IC50 (AktK; Table 1, class symbols per key) [nM] | IC50 (p70S6K; Table 1, class symbols per key) [nM] | IC50 (AktK) [nM] | IC50 (p70S6K) [nM] |
| --- | --- | --- | --- | --- |
| N#Cc1ccc(N2CCN(c3ncnc4[nH]nc(Br)c34)CC2)cc1 [Entry 123, 4-[4-(3-bromo-1H-pyrazolo[3,4-d]pyrimidin-4-yl)piperazin-1-yl]benzonitrile] | ≥ 10000 | < 100 |  |  |
| Cc1c(NCCN2CCCC2)cc(OCC(C)(C)C)cc1N1CCN(c2ncnc3[nH]nc(Br)c23)CC1 [Entry 221, 3-[4-(3-bromo-1H-pyrazolo[3,4-d]pyrimidin-4-yl)piperazin-1-yl]-5-[(2,2-dimethylpropyl)oxy]-2-methyl-N-(2-pyrrolidin-1-ylethyl)aniline] | < 100 | < 100 |  |  |
| CCc1n[nH]c2ncnc(N3CCN(c4ncccc4C(N)=O)CC3)c12 [Entry 115, 2-[4-(3-ethyl-1H-pyrazolo[3,4-d]pyrimidin-4-yl)piperazin-1-yl]pyridine-3-carboxamide] | ≥ 10000 | 100 to 1000 |  |  |
| Cc1c(NCCN2CCCC2)cc(OCC(C)(C)F)cc1N1CCN(c2ncnc3[nH]nc(Br)c23)CC1 [Entry 216, 3-[4-(3-bromo-1H-pyrazolo[3,4-d]pyrimidin-4-yl)piperazin-1-yl]-5-[(2-fluoro-2-methylpro-pyl)oxy]-2-methyl-N-(2-pyrrolidin-1-ylethyl)aniline] | < 100 | < 100 |  |  |
| Cc1ccc(Cl)cc1N1CCN(c2ncnc3[nH]nc(Nc4ccccc4)c23)CC1 [Entry 332, 4-[4-(5-chloro-2-methylphenyl)piperazin-1-yl]-N-phenyl-1H-pyrazolo[3,4-d]pyrimidin-3-amine] |  |  | 1000 to 10000 | 1000 to 10000 |
| COc1ccccc1N1CCN(c2ncnc3[nH]nc(Br)c23)CC1 [Entry 66, 3-bromo-4-{4-[2-(methyloxy)phenyl]piperazin-1-yl}-1H-pyrazolo[3,4-d]pyrimidine] | ≥ 10000 | < 100 |  |  |
| CCNC(=O)COc1cccc(N2CCN(c3ncnc4[nH]nc(Br)c34)CC2)c1 [Entry 139, 2-({3-[4-(3-bromo-1H-pyrazolo[3,4-d]pyrimidin-4-yl)piperazin-1-yl]phenyl}oxy)-N-ethylacetamide] | 1000 to 10000 | < 100 |  |  |
| Clc1ccc(N2CCN(c3ncnc4[nH]nc(Br)c34)CC2)cc1 [Entry 154, 3-bromo-4-[4-(4-chlorophenyl)piperazin-1-yl]-1H-pyrazolo[3,4-d]pyrimidine] | ≥ 10000 | 100 to 1000 |  |  |
| CNC(=O)c1cc(NCCN2CCCC2)c(C)c(N2CCN(c3ncnc4[nH]nc(Br)c34)CC2)c1 [Entry 202, 3-[4-(3-bromo-1H-pyrazolo[3,4-d]pyrimidin-4-yl)piperazin-1-yl]-N,4-dimethyl-5-[(2-pyrrolidin-1-ylethyl)amino]benzamide] | 100 to 1000 | < 100 |  |  |
| Cc1cc(F)c(-c2ccc(F)c(F)c2)cc1N1CCN(c2ncnc3[nH]nc(Br)c23)CC1 [Entry 266, 3-bromo-4-[4-(3′,4′,6-trifluoro-4-methylbiphenyl-3-yl)piperazin-1-yl]-1H-pyrazolo[3,4-d]pyrimidine] | 100 to 1000 | < 100 |  |  |
| c1ccc(N2CCN(c3ncnc4[nH]ccc34)CC2)cc1 [Entry 295, 4-(4-phenylpiperazin-1-yl)-7H-pyrrolo[2,3-d]pyrimidine] |  |  | ≥ 10000 | 100 to 1000 |
| CC(C)CCNc1c(F)c(F)nc(N2CCN(c3ncnc4[nH]nc(Br)c34)CC2)c1F [Entry 257, 2-[4-(3-bromo-1H-pyrazolo[3,4-d]pyrimidin-4-yl)piperazin-1-yl]-3,5,6-trifluoro-N-(3-methylbutyl)pyridin-4-amine] | 1000 to 10000 | 100 to 1000 |  |  |
| CCc1n[nH]c2ncnc(N3CCN(c4cc(Cl)cc(OCCN(C)C)c4OC)CC3)c12 [Entry 384, 2-{[5-chloro-3-[4-(3-ethyl-1H-pyrazolo[3,4-d]pyrimidin-4-yl)piperazin-1-yl]-2-(methyloxy)phenyl]oxy}-N,N-dimethylethanamine] |  |  | 1000 to 10000 | < 100 |
| CCN(CC)CCCOc1nc(Cl)nc(N2CCN(c3ncnc4[nH]nc(Br)c34)CC2)c1C [Entry 149, 3-({6-[4-(3-bromo-1H-pyrazolo[3,4-d]pyrimidin-4-yl)piperazin-1-yl]-2-chloro-5-methylpyrimidin-4-yl}oxy)-N,N-diethylpropan-1-amine] | 1000 to 10000 | 100 to 1000 |  |  |
| Cc1c(NCCN(C)C)cc(OCC(F)(CF)CF)cc1N1CCN(c2ncnc3[nH]nc(Br)c23)CC1 [Entry 229, N′-(3-[4-(3-bromo-1H-pyrazolo[3,4-d]pyrimidin-4-yl)piperazin-1-yl]-5-{[2,3-difluoro-2-(fluorometh-yl)propyl]oxy}-2-methylphenyl)-N,N-dimethylethane-1,2-diamine] | < 100 | < 100 |  |  |
| Cc1c(NCCN2CCCC2)cc(Cl)cc1N1CCN(c2ncnc3[nH]nc(C(C)C)c23)CC1 [Entry 138, 5-chloro-2-methyl-3-{4-[3-(1-methylethyl)-1H-pyrazolo[3,4-d]pyrimidin-4-yl]piperazin-1-yl}-N-(2-pyrrolidin-1-ylethyl)aniline] | 1000 to 10000 | < 100 |  |  |

| Molecule | IC50 (AktK; Table 1, class symbols per key) [nM] | IC50 (p70S6K; Table 1, class symbols per key) [nM] | IC50 (AktK) [nM] | IC50 (p70S6K) [nM] |
| --- | --- | --- | --- | --- |
| Cc1ccc(Cl)cc1N1CCN(c2ncnc3[nH]nc(-c4ccc(C#N)cc4)c23)CC1 [Entry 366, 4-{4-[4-(5-chloro-2-methylphenyl)piperazin-1-yl]-1H-pyrazolo[3,4-d]pyrimidin-3-yl}benzonitrile] |  |  | 1000 to 10000 | 1000 to 10000 |
| Cc1ccc(Cl)cc1N1CCN(c2ncnc3[nH]nc(/C=C/C(=O)O)c23)CC1 [Entry 369, (2E)-3-{4-[4-(5-chloro-2-methylphenyl)piperazin-1-yl]-1H-pyrazolo[3,4-d]pyrimidin-3-yl}prop-2-enoic acid] |  |  | 100 to 1000 | < 100 |
| CCc1n[nH]c2ncnc(N3CCN(c4cc(Cl)cc(NCCN(C)C(C)C)c4C)CC3)c12 [Entry 146, N′-{5-chloro-3-[4-(3-ethyl-1H-pyrazolo[3,4-d]pyrimidin-4-yl)piperazin-1-yl]-2-methylphenyl}-N-methyl-N-(1-methylethyl)ethane-1,2-diamine] | 100 to 1000 | < 100 |  |  |
| 4-[4-(5-chloro-2-methylphenyl)piperazin-1-yl]-1H-pyrazolo[3,4-d]pyrimidin-6-amine [Entry 156] | ≥ 10000 | 1000 to 10000 |  |  |
| Cc1ccc(-c2ccccc2OCCN2CCOCC2)cc1N1CCN(c2ncnc3[nH]nc(Br)c23)CC1 [Entry 279, 3-bromo-4-(4-{4-methyl-2′-[(2-morpholin-4-ylethyl)oxy]biphenyl-3-yl}piperazin-1-yl)-1H-pyrazolo[3,4-d]pyrimidine] | < 100 | < 100 |  |  |
| Cc1ccc(Cl)cc1N1CCN(c2ncnc3[nH]nc(N4CCN(C)CC4)c23)CC1 [Entry 391, 4-[4-(5-chloro-2-methylphenyl)piperazin-1-yl]-3-(4-methylpiperazin-1-yl)-1H-pyrazolo[3,4-d]pyrimidine] |  |  | 1000 to 10000 | 1000 to 10000 |
| CCc1n[nH]c2ncnc(N3CCN(c4cc(Cl)cc(NCCN(C)C)c4C)CC3)c12 [Entry 386, N′-{5-chloro-3-[4-(3-ethyl-1H-pyrazolo[3,4-d]pyrimidin-4-yl)piperazin-1-yl]-2-methylphenyl}-N,N-dimethylethane-1,2-diamine] |  |  | 100 to 1000 | < 100 |
| CCCCC(=O)c1cc(NCCN2CCCC2)c(C)c(N2CCN(c3ncnc4[nH]nc(CC)c34)CC2)c1 [Entry 262, 1-{3-[4-(3-ethyl-1H-pyrazolo[3,4-d]pyrimidin-4-yl)piperazin-1-yl]-4-methyl-5-[(2-pyrrolidin-1-ylethyl)amino]phenyl}pentan-1-one] | < 100 | < 100 |  |  |
| Cc1c(NCCN2CCCC2)cc(C(=O)c2ccccc2)cc1N1CCN(c2ncnc3[nH]nc(Br)c23)CC1 [Entry 236, {3-[4-(3-bromo-1H-pyrazolo[3,4-d]pyrimidin-4-yl)piperazin-1-yl]-4-methyl-5-[(2-pyrrolidin-1-ylethyl)amino]phenyl}(phenyl)methanone] | < 100 | < 100 |  |  |
| Cc1cc(N2CCN(c3ncnc4[nH]nc(Br)c34)CC2)c2ccccc2n1 [Entry 120, 4-[4-(3-bromo-1H-pyrazolo[3,4-d]pyrimidin-4-yl)piperazin-1-yl]-2-methylquinoline] | ≥ 10000 | < 100 |  |  |
| COc1ccccc1N1CCN(c2ncnc3[nH]ccc23)CC1 [Entry 302, 4-{4-[2-(methyloxy)phenyl]piperazin-1-yl}-7H-pyrrolo[2,3-d]pyrimidine] |  |  | ≥ 10000 | 100 to 1000 |
| CCc1n[nH]c2ncnc(N3CCN(c4cc(F)ccc4F)CC3)c12 [Entry 132, 4-[4-(2,5-difluorophenyl)piperazin-1-yl]-3-ethyl-1H-pyrazolo[3,4-d]pyrimidine] | ≥ 10000 | 100 to 1000 |  |  |
| Cc1c(NCCN2CCCC2)cc(F)cc1N1CCN(c2ncnc3[nH]nc(Br)c23)CC1 [Entry 58, 3-[4-(3-bromo-1H-pyrazolo[3,4-d]pyrimidin-4-yl)piperazin-1-yl]-5-fluoro-2-methyl-N-(2-pyrrolidin-1-ylethyl)aniline] | 100 to 1000 | < 100 |  |  |
| CCc1n[nH]c2ncnc(N3CCN(c4cc(Cl)cc(CN(C)C)c4OC)CC3)c12 [Entry 377, 1-[5-chloro-3-[4-(3-ethyl-1H-pyrazolo[3,4-d]pyrimidin-4-yl)piperazin-1-yl]-2-(methyloxy)phenyl]-N,N-dimethylmethanamine] |  |  | ≥ 10000 | 100 to 1000 |
| Cc1c(NCCN2CCCC2)cc(C#CC(C)(C)C)cc1N1CCN(c2ncnc3[nH]nc(Br)c23)CC1 [Entry 238, 3-[4-(3-bromo-1H-pyrazolo[3,4-d]pyrimidin-4-yl)piperazin-1-yl]-5-(3,3-dimethylbut-1-yn-1-yl)-2-methyl-N-(2-pyrrolidin-1-ylethyl)aniline] | < 100 | < 100 |  |  |
| CCN(CC)CC#Cc1n[nH]c2ncnc(N3CCN(c4cc(Cl)ccc4C)CC3)c12 [Entry 392, 3-{4-[4-(5-chloro-2-methylphenyl)piperazin-1-yl]-1H-pyrazolo[3,4-d]pyrimidin-3-yl}-N,N-diethylprop-2-yn-1-amine] |  |  | 1000 to 10000 | < 100 |
